Test results published in ChEMBL document CHEMBL1201862, “PubChem BioAssay data set” (2004).
One block for each compound: values may come before it. Active and inactive are the calls of the source.

Columns and labels:
[1] = molecular target: T1, Aryl hydrocarbon receptor (Homo sapiens, UniProt P35869); experiment: Luminescence-based cell-based high throughput dose response assay for activators of the Aryl Hydrocarbon Receptor (AHR). [Related pubchem assays: 2796 (Primary screen (AHR activators in singlicate)), 2845 (Confirmation screen (AHR activators in triplicate)), 434939 (Counterscreen (PXR activators in triplicate)), 2804 (Summary (AHR activators))]; type: ADME
T1 sequence (P35869 whole entry): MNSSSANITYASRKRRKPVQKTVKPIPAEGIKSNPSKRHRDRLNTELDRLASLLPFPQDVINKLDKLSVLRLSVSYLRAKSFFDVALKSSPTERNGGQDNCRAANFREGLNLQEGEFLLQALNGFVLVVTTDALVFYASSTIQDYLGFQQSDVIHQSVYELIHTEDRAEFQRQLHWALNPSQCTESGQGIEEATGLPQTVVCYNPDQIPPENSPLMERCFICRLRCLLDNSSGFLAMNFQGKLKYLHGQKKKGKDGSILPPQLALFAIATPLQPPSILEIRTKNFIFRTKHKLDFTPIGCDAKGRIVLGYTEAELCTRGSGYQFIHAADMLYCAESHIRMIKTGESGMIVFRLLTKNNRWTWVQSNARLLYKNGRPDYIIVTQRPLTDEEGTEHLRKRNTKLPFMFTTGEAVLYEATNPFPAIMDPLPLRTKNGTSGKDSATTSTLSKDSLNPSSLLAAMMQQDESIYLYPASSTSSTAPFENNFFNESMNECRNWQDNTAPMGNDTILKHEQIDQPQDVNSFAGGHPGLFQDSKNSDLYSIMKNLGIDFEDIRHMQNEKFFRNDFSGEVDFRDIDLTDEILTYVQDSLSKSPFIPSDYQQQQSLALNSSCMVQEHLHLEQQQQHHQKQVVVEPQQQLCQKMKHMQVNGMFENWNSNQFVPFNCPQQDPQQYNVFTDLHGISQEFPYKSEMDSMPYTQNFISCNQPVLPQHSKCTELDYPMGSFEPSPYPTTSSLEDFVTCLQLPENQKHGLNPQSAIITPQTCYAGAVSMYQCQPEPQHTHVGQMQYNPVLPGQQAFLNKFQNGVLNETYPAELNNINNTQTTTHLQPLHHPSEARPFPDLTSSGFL

[2] = molecular target: T2, CAAX prenyl protease 2 (Saccharomyces cerevisiae S288c, UniProt Q03530); type: biochemical
T2 sequence (Q03530 whole entry): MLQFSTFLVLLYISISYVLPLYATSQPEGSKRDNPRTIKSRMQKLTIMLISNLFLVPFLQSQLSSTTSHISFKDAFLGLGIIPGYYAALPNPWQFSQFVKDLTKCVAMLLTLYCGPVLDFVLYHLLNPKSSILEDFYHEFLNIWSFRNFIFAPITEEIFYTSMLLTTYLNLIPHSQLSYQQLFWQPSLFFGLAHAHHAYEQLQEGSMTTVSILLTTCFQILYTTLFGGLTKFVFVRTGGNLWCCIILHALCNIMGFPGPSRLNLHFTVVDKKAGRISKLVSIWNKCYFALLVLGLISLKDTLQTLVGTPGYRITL

[3] = molecular target: T3, Short transient receptor potential channel 4 (Mus musculus, UniProt Q9QUQ5); experiment: mouse TRPC4 channel activators, dose response, cell-based, HEK293 TRPC4/mu-opioid, Fluo-4 calcium (AID 434937); type: functional
T3 sequence (Q9QUQ5 whole entry): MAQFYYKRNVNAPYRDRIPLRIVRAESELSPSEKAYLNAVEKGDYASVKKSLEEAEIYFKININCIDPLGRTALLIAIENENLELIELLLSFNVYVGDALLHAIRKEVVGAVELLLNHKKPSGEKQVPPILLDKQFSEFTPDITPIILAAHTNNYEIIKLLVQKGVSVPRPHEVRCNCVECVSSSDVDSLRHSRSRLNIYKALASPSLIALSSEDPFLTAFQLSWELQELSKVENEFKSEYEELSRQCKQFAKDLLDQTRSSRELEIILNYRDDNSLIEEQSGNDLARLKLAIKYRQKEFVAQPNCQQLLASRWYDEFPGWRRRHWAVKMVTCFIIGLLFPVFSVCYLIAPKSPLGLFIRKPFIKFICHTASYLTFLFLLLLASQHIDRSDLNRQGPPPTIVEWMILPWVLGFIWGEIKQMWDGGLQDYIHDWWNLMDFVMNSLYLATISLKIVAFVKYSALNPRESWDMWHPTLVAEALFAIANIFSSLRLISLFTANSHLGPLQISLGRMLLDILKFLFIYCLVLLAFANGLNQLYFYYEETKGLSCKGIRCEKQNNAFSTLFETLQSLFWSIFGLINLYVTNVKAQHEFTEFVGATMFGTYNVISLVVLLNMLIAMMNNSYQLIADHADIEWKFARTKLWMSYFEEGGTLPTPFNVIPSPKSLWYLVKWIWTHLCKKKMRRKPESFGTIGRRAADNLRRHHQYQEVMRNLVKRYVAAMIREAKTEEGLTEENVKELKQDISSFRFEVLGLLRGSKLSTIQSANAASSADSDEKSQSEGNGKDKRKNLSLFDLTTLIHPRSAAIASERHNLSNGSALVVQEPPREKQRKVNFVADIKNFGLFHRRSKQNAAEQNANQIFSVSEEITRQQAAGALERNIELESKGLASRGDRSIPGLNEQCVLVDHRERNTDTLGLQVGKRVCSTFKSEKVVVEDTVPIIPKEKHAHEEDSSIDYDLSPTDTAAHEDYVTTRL

[4] = molecular target: T4, X-box-binding protein 1 (Homo sapiens, UniProt P17861); type: functional, Cricetulus griseus;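 also: confirmatory dose-response counter-screen serving a CHOP assay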
T4 sequence (P17861 whole entry): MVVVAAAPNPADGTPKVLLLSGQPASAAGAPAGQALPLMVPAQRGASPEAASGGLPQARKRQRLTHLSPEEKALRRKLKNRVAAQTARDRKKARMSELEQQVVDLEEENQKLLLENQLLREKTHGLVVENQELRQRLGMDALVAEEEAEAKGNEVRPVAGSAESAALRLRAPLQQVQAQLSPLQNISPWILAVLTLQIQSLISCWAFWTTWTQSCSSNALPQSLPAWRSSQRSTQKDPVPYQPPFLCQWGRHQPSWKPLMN

[5] = cells; type: functional, cell-based
[6] = cytotoxicity in HEK-293T cells, dose response, cytotoxicity control for TCR NF-kB inhibitor project, luminescence, T-cell screen hits (AID 489026); type: functional, cell-based;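 also: cells exposed to compound about 14 hours before the viability readout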
[7] = cells; type: functional, cell-based; remark: listed apart in the source
[8] = molecular target: T5, Heat shock factor protein 1 (Mus musculus, UniProt P38532); experiment: inhibition of MG132-induced HSE-luciferase signal, confirmation, cell-based, NIH3T3, luminescence, dose retest (AID 2382); type: functional;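 also: NIH3T3 fibroblasts with HSF1-driven luciferase reporter stressed by proteasome inhibitor MG132; luminescence from HSF1-driven luciferase expression after 8 hours of MG132 stress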
T5 sequence (P38532 whole entry): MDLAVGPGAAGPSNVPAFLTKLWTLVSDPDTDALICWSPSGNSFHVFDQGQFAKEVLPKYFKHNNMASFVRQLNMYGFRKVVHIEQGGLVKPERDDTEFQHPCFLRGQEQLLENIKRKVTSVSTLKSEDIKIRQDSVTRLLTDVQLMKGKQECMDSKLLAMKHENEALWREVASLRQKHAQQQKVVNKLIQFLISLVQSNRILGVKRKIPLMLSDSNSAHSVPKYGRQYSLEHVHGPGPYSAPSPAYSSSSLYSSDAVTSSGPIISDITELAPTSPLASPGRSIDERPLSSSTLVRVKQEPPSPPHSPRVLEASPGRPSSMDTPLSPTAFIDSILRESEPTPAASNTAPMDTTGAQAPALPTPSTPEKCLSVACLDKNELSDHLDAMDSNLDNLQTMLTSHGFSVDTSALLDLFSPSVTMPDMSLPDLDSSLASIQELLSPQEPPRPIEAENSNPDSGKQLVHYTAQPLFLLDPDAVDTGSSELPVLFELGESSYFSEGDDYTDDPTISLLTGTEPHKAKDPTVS

[9] = molecular target: Intestinal-type alkaline phosphatase (Homo sapiens, UniProt P09923); experiment: Dose Response confirmation of uHTS hits from a small molecule inhibitors of human intestinal alkaline phosphatase via a luminescent assay. [Related pubchem assays (depositor defined):AID2544, AID2574]; type: functional
Sequence of Intestinal-type alkaline phosphatase (P09923 whole entry): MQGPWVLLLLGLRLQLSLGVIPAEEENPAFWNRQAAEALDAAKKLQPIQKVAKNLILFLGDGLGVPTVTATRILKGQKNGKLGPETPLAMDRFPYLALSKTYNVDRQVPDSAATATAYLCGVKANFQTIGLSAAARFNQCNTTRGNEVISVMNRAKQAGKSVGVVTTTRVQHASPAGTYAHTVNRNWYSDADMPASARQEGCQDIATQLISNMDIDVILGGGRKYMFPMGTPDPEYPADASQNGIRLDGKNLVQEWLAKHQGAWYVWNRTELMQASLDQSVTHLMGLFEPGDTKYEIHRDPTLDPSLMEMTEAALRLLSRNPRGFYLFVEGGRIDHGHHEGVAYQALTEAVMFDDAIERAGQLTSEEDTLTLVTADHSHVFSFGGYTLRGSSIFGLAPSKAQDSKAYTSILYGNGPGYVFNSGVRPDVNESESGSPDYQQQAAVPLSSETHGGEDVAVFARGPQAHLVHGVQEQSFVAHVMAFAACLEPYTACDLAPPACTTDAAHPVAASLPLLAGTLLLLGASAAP

[10] = HepG2 cell cytotoxicity, dose response, cytotoxicity control for Shn3 inhibitor project, CellTiter-Glo, cherry-picked (AID 624134); type: functional, cell-based
[11] = control 3'UTR Renilla luciferase suppression, dose response, counter-screen for Shn3 inhibitor project, cell-based, Clone20-Shn3RL, cherry-picked (AID 624133); type: functional
[12] = Shn3 3'UTR reporter inhibitors, dose response, cell-based, Clone20 osteoblasts, firefly luciferase, cherry-picked (AID 624132); type: functional;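 also: firefly luciferase luminescence from reporter carrying the Shn3 3'UTR in osteoblasts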
[13] = molecular target: Mitogen-activated protein kinase 10 (Homo sapiens, UniProt P53779); experiment: Dose response biochemical screening assay for inhibitors of c-Jun N-Terminal Kinase 3 (JNK3). [Related pubchem assays: 746 ]
Sequence of Mitogen-activated protein kinase 10 (P53779 whole entry): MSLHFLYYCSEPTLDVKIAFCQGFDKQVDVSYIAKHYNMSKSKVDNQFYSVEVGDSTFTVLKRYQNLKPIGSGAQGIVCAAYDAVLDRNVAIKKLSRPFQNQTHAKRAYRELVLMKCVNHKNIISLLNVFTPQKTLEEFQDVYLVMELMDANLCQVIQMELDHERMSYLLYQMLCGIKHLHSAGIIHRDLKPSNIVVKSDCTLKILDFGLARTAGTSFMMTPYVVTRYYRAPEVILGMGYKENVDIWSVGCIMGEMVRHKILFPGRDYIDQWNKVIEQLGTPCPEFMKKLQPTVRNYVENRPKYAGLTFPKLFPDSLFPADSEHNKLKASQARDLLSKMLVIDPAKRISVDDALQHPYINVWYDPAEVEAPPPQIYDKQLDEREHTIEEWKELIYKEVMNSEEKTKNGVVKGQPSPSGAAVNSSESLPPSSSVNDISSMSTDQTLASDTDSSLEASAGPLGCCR

- EC50 [1]: 5.72 µM (active)
- AC50 [2]: 5.02 µM (active)
Structure (SMILES): COc1ccc(-c2oc3ccc(N4CCOCC4)cc3c2C#Cc2ccc(N)cc2)cc1

- EC50 [3]: 2.11 µM (active)
Structure (SMILES): Fc1ccc(NC(S)=NCCc2ccccn2)cc1

- Absolute IC50 (XBP1) [4]: 10 µM
Structure (SMILES): CC(C)c1ccc(C2C3CSCC=C3C(C#N)=C(N)C2(C#N)C#N)cc1 (stereo not given)

Structure (SMILES): COC(=O)[C@]12OC[C@]34C([C@@H](O)[C@@H]1O)[C@]1(C)CC(=O)C(O)=C(C)[C@@H]1C[C@H]3OC(=O)[C@H](O)[C@@H]24 (stereo not given in full)
- EC50 [5]: > 350 µM (not active)
- IC50 [6]: > 80 µM (inactive)
- EC50 [7]: > 350 µM (not active)
- EC50 [8]: 1.01 µM (active)

- IC50 [9]: > 100 µM (inactive)
Structure (SMILES): COc1ccc(NC(=O)CCN2CCN(S(=O)(=O)c3cc(Cl)ccc3OC)CC2)cc1

Structure (SMILES): Cc1ccc(NS(=O)(=O)c2ccc(C(=O)NC3CCN(Cc4ccccc4)CC3)cc2)cc1
- IC50 [6]: 76.2 µM (inactive)
- AC50 [10]: 14.8 µM (active)
- AC50 [11]: 12.9 µM (active)
- AC50 [12]: 4.69 µM (active)

- IC50 [9]: > 100 µM (inactive)
- IC50 [13]: 51.9 µM (not active)
Structure (SMILES): N#C/C(=C(\O)c1ccco1)c1ccccn1
